# In ChEMBL document CHEMBL4145564, “NAD(P)H:Quinone Oxidoreductase 1 (NQO1) as a Therapeutic and Diagnostic Target in Cancer” (J Med Chem, 2018):
# Tests used:
# [1] = test system: Homo sapiens; test: Toxicity in iv dosed human assessed as maximum tolerated dose administered as infusion; format: organism-based; conditions: in vivo
# [2] = molecular target: T1, NAD(P)H dehydrogenase [quinone] 1 (Homo sapiens, UniProt P15559); test: Inhibition of recombinant human NQO1 in presence of NADPH measured at 2 sec intervals for 5 mins
# [3] = molecular target: T2, NAD(P)H dehydrogenase [quinone] 1 (Rattus norvegicus, UniProt P05982); test: Competitive binding affinity to rat liver NQO1 in presence of NADPH
# T2 sequence (P05982 whole entry): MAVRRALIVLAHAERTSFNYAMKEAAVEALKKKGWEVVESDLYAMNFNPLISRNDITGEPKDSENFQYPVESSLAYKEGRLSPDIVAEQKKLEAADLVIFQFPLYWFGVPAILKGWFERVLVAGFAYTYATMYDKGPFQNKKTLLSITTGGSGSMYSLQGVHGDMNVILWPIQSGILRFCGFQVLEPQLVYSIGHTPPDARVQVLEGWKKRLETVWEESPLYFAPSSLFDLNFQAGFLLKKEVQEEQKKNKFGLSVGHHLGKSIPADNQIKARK
# [4] = molecular target: T1, NAD(P)H dehydrogenase [quinone] 1; test: Inactivation of recombinant human NQO1 expressed in Escherichia coli using DCPIP as substrate assessed as rate of reduction of DCPIP by spectrophotometric analysis
# [5] = molecular target: T1, NAD(P)H dehydrogenase [quinone] 1; test: Inhibition of recombinant human NQO1 expressed in Escherichia coli using DCPIP as substrate assessed as rate of reduction of DCPIP in presence of NADH after 5 mins by spectrophotometric analysis
# [6] = molecular target: T1, NAD(P)H dehydrogenase [quinone] 1; test: Inactivation of recombinant human NQO1 expressed in Escherichia coli using DCPIP as substrate assessed as partition ratio up to 200 nM by spectrophotometric analysis
# [7] = Half life in athymic nude mouse blood; format: ADME, organism-based
compound,measurement,setting,value
CC1=C(N2CC2)C(=O)C(CO)=C(N2CC2)C1=O,MTD,[1],1430 ug/m2/day
S=C(Cc1ccc2c3c([nH]c2c1)CCCC3)N1CCOCC1,IC50,[2],1470 nM
O=c1oc2ccccc2c(O)c1Cc1c(O)c2ccccc2oc1=O [DICUMAROL],Ki,[3],1 to 10 nM
CN1C(=O)C(O)(CC(=O)c2cc3c4c(cccc4c2)CC3)c2ccccc21 (stereo not drawn),IC50,[2],2040 nM
COC1=CC(=O)c2c(c(COc3ccc([N+](=O)[O-])cc3)c(C)n2C)C1=O,Kinact,[4],0.78 min⁻¹
same,Ki,[5],450 nM
same,Ratio,[6],1.4
CC1(C)CCC2=C(O1)c1ccccc1C(=O)C2=O [LAPACHONE],half-life,[7],24 min
